Data on one compound can be found in article PMC8770593 (Nature Communications, 2022).

Positions count from the first letter of the chain named. Where “and” joins values, the source holds several entries; their conditions need not be identical. Equal entries are not always repeated. Where two headings read alike, the source gives them in different places.

For experiment [1], the target named is α1BAR-α2C(YLLY;ECL2) chimera (Homo sapiens, UniProt P35368, A122L/DEL188-193/E186Y/E194Q/E199D/F202W/G179P/I178F/INS181VSLYRQP/K185A/L182D/L314Y/P201T/T198N/V197L/W121Y/W184A). The experiment is described as follows: HTRF ligand-binding assay on whole transfected HEK293T/17 cells (QAPB saturation; competition with QAPB tracer). The following applies: competition with 50 nM QAPB tracer, whole cells, mean; read-out: pKi (competition binding) (converted).
Chain of α1BAR-α2C(YLLY;ECL2) chimera (P35368 with tags, fused parts or gaps with the stated changes): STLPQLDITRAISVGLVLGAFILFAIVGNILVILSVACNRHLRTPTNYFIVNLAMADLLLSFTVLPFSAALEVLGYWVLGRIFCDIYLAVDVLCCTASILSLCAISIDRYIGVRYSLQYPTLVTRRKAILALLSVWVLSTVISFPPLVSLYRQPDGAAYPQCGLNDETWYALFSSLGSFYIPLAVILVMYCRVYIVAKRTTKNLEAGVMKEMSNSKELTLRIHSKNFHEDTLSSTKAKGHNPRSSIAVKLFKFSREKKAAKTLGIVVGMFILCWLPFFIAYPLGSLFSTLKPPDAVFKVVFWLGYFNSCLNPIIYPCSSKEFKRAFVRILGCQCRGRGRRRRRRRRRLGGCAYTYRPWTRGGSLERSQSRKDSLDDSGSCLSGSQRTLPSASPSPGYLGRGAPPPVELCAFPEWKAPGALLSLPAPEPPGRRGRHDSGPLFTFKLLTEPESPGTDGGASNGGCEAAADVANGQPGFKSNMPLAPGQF

A further experiment deals with T1, α1BAR-α2C(YLLY) chimera (Homo sapiens, UniProt P35368, A122L/L314Y/V197L/W121Y).
T1 sequence (P35368 35-520 W121Y/A122L/V197L/L314Y): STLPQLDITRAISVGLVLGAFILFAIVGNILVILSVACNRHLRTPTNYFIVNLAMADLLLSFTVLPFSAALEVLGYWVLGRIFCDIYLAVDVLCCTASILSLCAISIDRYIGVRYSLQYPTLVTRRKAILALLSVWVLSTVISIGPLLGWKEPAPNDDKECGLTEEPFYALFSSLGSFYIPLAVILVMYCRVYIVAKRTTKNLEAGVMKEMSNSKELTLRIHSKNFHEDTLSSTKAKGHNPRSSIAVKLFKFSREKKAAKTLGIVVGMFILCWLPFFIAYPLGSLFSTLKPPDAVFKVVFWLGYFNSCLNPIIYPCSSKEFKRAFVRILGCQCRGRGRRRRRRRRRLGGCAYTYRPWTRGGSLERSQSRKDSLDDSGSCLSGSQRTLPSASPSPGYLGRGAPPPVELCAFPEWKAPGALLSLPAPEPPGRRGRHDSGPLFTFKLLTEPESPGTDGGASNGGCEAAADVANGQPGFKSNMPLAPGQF
Described as above.

The test system of another experiment is α2ARs over α1ARs. The following applies: reported; cited from earlier work.
For experiment [2], the target named is T2, α1BAR-α2C(L^45.52) chimera (V197^45.52→L) (Homo sapiens, UniProt P35368, V197L).
T2 sequence (P35368 35-520 V197L): T1 sequence (P35368 35-520 W121Y/A122L/V197L/L314Y) with Y87W, L88A, Y280L
The experiment can be described thus: HTRF ligand-binding assay on whole transfected HEK293T/17 cells (QAPB saturation; competition with QAPB tracer). For orientation: TR-FRET usually uses a lanthanide donor and a delayed reading to cut background.

A further experiment addresses T3, wild-type α2CAR (Homo sapiens, UniProt P18825).
T3 sequence (P18825 37-462 limits assumed): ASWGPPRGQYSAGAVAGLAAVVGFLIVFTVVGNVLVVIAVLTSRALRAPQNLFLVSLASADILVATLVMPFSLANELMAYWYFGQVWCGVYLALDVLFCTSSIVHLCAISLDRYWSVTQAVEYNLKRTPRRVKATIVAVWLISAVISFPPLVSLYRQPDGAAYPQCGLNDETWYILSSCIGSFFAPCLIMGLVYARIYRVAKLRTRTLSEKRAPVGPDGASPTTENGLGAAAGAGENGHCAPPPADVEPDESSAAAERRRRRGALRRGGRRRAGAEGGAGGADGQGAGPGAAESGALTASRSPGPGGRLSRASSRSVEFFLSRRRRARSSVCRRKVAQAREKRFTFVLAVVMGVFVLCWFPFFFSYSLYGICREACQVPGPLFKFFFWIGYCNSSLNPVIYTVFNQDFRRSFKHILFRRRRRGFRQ
The experiment is described as above.

Experiment [3] deals with α1BAR-α2C(YLLY;N^2.64) chimera (Homo sapiens, UniProt P35368, A122L/L105N/L314Y/V197L/W121Y). The description is as above.
Chain of α1BAR-α2C(YLLY;N^2.64) chimera (P35368 35-520 L105N/W121Y/A122L/V197L/L314Y): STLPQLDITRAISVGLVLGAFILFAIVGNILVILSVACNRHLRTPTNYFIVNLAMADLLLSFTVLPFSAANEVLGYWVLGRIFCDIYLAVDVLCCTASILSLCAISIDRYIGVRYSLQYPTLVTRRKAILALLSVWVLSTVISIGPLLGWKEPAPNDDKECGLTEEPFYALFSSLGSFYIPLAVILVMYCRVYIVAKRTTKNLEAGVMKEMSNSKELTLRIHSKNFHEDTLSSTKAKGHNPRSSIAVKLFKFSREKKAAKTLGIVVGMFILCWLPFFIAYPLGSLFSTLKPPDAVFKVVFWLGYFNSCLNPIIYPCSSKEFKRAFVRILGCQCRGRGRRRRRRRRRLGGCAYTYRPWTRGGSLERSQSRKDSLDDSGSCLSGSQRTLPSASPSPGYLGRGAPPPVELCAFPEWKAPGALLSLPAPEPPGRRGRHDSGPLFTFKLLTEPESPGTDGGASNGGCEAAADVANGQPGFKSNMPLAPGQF
Another experiment deals with α2CAR L128^3.29→A. More on the design: method as in PMID 31801061. The settings on record: L128^3.29→A in α2CAR vs wild type; cited from earlier work.
For the next experiment, the target named is T4, wild-type α1BAR (Homo sapiens, UniProt P35368).
T4 sequence (P35368 35-520 limits assumed): T1 sequence (P35368 35-520 W121Y/A122L/V197L/L314Y) with Y87W, L88A, L163V, Y280L
The experiment can be described thus: HTRF ligand-binding assay on whole transfected HEK293T/17 cells (QAPB saturation; competition with QAPB tracer).

`CCS(=O)(=O)N1CCC[C@@H]2CN3CCc4cc(OC)ccc4[C@@H]3C[C@@H]21` [RS79948]: the Ki in experiment [1] was 9.55 nM; at α1BAR-α2C(YLLY) chimera (competition with 50 nM QAPB tracer, whole cells, mean, read-out: pKi (competition binding) (converted)) it was 1.66 nM; on α1BAR-α2C(YLLY) chimera (construct α1BAR-α2C(YLLY), competition with RS79948 against QAPB tracer, one value per experiment date, read-out: Calculated pKi values (converted)) it was 0.869 nM and 1.72 nM and 1.67 nM and 3.15 nM; in experiment [2] (competition with 2 nM QAPB tracer, whole cells, mean, read-out: pKi (competition binding) (converted)) it was 589 nM; in experiment [2] (construct α1BAR-α2C(L45.52), competition with RS79948 against QAPB tracer, one value per experiment date, read-out: Calculated pKi values (converted)), 594 nM and 645 nM and 549 nM; on wild-type α2CAR (Calculated pKi values, construct α2CAR, competition with RS79948 against QAPB tracer, one value per experiment date), 0.124 nM and 0.311 nM and 0.324 nM and 0.183 nM and 0.189 nM. The Ki on wild-type α2CAR (pKi (competition binding), competition with 50 nM QAPB tracer, whole cells, mean) is 0.214 nM; in experiment [3] it was 1.38 nM; at wild-type α1BAR (Calculated pKi values, construct α1BAR, competition with RS79948 against QAPB tracer, one value per experiment date), 1270 nM and 1110 nM and 1070 nM and 1900 nM and 1250 nM and 1510 nM and 981 nM; at wild-type α1BAR (pKi (competition binding), competition with 2 nM QAPB tracer, whole cells, mean), 1260 nM. Further, the “affinity improved compared to wild-type α1BAR” value at α1BAR-α2C(YLLY) chimera (α1BAR-α2C(YLLY) vs wild-type α1BAR) was “almost three orders of magnitude”. Further, the “selectivity for α2ARs over α1ARs” value in the experiment on α2ARs over α1ARs was ~ 10,000 fold. The “higher affinity compared to wild-type α1BAR” value in experiment [2] (V197^45.52→L vs wild-type α1BAR) stood at 2 fold. Further, the “decrease of the ability to antagonize agonist-induced signaling” value in the experiment on α2CAR L128^3.29→A is reported as 50 fold.
